The record followed here is ChEMBL document CHEMBL1128533, “Synthesis and ligand binding study of 3 beta-(4'-substituted phenyl)-2 beta-(heterocyclic)tropanes” (J Med Chem, 1995).

The IC50 is the concentration at which inhibition is half-maximal. The low end stands for greater potency in that assay, the high end for weaker potency in that assay.

The target of experiment [1] is Norepinephrine transporter (Rattus norvegicus, UniProt Q9WTR4). Put plainly: Binding affinity towards Norepinephrine transporter was determined using NE[3H]Nisoxetine as radioligand.
The target in experiment [2] is Sodium-dependent dopamine transporter (Rattus norvegicus, UniProt P23977). In words: Binding affinity towards dopamine transporter was determined using DA[3H]WIN-35428 as radioligand.
Experiment [3] has as its target Monoamine transporters; serotonin & dopamine (Homo sapiens) (UniProt P31645+Q01959). Put plainly: Ratio of IC50 of 5-hydroxy tryptamine to dopamine. It is filed as protein assay.
Experiment [4] is described as follows: Ratio of IC50 of norepinephrine to dopamine.
Experiment [5] deals with Sodium-dependent serotonin transporter (Rattus norvegicus, UniProt P31652). Put plainly: Binding affinity towards Serotonin transporter was determined using 5-HT [3H]paroxetine as radioligand.
Sequence of Sodium-dependent serotonin transporter (P31652 whole entry): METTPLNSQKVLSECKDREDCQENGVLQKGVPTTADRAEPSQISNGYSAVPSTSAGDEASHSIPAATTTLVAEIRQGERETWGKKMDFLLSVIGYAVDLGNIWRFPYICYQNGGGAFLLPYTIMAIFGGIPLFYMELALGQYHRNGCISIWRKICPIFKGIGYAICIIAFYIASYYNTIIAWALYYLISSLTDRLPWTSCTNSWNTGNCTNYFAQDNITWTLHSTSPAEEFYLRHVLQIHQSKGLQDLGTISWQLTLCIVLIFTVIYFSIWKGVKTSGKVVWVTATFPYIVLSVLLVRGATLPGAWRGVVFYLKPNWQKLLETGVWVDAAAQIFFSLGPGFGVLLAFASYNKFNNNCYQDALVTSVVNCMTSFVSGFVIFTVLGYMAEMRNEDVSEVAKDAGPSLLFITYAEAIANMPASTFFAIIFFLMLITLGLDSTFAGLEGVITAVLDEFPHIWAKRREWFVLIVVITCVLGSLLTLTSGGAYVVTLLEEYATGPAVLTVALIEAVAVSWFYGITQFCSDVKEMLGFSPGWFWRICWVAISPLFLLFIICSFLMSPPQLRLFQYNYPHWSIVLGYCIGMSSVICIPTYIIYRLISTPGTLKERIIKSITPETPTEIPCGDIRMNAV

Sequence of Norepinephrine transporter (Q9WTR4 whole entry): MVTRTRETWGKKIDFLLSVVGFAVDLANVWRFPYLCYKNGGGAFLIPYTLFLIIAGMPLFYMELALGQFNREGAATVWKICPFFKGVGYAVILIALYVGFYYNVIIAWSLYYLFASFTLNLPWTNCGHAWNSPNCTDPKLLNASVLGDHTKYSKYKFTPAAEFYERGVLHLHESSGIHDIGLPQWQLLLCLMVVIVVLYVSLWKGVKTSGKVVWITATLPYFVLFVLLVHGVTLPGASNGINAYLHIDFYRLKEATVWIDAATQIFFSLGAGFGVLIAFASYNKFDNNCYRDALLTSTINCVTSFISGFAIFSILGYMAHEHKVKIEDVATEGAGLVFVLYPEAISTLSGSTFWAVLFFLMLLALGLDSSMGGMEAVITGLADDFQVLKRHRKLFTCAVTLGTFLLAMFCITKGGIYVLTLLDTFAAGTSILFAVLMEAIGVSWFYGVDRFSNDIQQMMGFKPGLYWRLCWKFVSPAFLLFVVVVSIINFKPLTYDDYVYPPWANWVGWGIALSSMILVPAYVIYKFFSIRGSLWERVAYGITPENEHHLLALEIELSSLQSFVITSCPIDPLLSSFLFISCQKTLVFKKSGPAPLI
Sequence of Monoamine transporters; serotonin & dopamine (Homo sapiens) (P31645 whole entry, looked up): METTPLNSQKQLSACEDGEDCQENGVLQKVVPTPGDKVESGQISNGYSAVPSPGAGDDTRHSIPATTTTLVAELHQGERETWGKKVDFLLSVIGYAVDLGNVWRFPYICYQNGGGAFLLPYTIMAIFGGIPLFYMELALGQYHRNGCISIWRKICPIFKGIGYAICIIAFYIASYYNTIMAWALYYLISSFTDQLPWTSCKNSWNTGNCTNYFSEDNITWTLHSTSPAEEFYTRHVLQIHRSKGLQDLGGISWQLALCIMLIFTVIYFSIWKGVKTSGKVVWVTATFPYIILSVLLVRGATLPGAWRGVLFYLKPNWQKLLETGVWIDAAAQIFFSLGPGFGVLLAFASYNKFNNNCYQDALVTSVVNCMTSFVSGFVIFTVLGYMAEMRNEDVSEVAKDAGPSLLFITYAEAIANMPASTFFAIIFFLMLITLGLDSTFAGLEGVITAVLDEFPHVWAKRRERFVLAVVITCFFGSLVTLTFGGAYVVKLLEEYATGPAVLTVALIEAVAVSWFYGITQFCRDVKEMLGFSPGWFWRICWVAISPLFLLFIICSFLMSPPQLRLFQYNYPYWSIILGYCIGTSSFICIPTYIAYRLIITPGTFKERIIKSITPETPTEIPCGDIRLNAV
Sequence of Monoamine transporters; serotonin & dopamine (Homo sapiens) (Q01959 whole entry, looked up): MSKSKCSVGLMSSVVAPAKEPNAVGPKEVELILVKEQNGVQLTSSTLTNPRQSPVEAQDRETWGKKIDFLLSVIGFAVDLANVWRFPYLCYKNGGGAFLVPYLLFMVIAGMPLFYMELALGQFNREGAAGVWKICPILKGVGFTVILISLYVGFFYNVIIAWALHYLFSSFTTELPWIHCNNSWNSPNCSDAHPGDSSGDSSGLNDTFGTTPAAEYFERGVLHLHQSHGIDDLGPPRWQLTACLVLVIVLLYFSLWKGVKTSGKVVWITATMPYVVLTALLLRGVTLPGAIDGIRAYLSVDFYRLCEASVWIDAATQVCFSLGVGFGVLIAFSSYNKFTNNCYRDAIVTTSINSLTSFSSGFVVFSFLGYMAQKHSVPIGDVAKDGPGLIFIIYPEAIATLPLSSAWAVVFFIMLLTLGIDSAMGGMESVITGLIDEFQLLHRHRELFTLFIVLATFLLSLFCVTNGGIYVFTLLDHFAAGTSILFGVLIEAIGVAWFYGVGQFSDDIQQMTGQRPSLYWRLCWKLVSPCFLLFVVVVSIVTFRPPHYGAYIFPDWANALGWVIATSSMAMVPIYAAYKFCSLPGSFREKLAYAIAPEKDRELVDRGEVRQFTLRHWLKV
Sequence of Sodium-dependent dopamine transporter (P23977 whole entry): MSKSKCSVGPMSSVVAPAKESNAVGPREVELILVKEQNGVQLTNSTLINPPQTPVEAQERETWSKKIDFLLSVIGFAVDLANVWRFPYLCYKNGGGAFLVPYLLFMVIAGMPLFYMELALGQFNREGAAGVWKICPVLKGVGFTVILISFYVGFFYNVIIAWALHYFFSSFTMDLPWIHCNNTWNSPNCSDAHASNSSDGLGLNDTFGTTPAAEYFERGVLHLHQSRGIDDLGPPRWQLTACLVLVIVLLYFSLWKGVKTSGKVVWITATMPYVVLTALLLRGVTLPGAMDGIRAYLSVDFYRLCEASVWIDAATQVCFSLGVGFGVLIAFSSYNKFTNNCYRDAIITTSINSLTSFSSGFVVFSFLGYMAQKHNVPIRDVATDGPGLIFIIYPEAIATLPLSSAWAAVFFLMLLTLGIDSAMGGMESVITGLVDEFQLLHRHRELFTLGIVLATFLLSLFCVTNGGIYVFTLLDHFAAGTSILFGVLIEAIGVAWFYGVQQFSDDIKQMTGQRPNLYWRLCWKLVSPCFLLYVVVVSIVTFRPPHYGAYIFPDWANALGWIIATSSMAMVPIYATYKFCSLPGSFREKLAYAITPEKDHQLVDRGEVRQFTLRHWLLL

For `CN1C2CCC1C(c1nnc(-c3ccccc3)o1)C(c1ccc(Cl)cc1)C2` (centres undefined), the IC50 stood at 929 nM in experiment [1] and 12.6 nM in experiment [2]. The Ratio was determined as 262 in experiment [3] and 74 in experiment [4].

Consider `CN1C2CC[C@@H]1C[C@H](c1ccc(Cl)cc1)C2c1cc(-c2ccccc2)no1` (some centres undefined), for which the IC50 in experiment [5] came to 2420 nM; in experiment [1], 504 nM; in experiment [2], 1.28 nM. Besides, the Ratio in experiment [3] is 1890; in experiment [4] it was 394.

Regarding `CN1C2CCC1C(c1nc(-c3ccccc3)no1)C(c1ccc(Cl)cc1)C2` (centres undefined), the IC50 turned out to be 245 nM in experiment [1] and 1.62 nM in experiment [2]. The Ratio in experiment [3] was found to be 120; in experiment [4] it was 151.

For the compound `CN1C2CCC1C(c1ncc(-c3ccccc3)o1)C(c1ccc(Cl)cc1)C2` (centres undefined), the figures for the IC50 in experiment [1] and in experiment [2] were 496 nM and 19.7 nM, respectively. In addition, the values for the Ratio in experiment [3] and in experiment [4] were 57 and 25, respectively.

For `CN1C2CCC1C(C(=O)Oc1ccccc1)C(c1ccc(Cl)cc1)C2` (centres undefined), the values for the Ratio in experiment [3] and in experiment [4] were 1180 and 1490, respectively.
